Experimental data from ChEMBL document CHEMBL1201862, “PubChem BioAssay data set” (2004).
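Briefly, cells in 96-well plates were exposed to five compound concentrations for 48 h, and endpoints were estimated by linear interpolation. GI50 marks 50% less growth.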 The source made the active and inactive calls. Rule as the data show it: active = GI50 up to about 1.1 µM and inactive = higher.

Experiments:
Assay in all cases: NCI anticancer screen, dose series, 48 h
CAKI-1 = tested on: CAKI-1
NCI-H460 = tested on: NCI-H460
M14 = tested on: M14
A498 = tested on: A498
BT-549 = tested on: BT-549
EKVX = tested on: EKVX
SK-MEL-2 = tested on: SK-MEL-2
RPMI-8226 = tested on: RPMI-8226
MDA-MB-435 = tested on: MDA-MB-435
KM12 = tested on: KM12
UO-31 = tested on: UO-31
MDA-MB-231 = tested on: MDA-MB-231
HOP-62 = tested on: HOP-62
HCT-116 = tested on: HCT-116
TK-10 = tested on: TK-10
ACHN = tested on: ACHN
SW-620 = tested on: SW-620
SF-539 = tested on: SF-539
HL-60 = tested on: HL-60
PC-3 = tested on: PC-3

SMILES	GI50 (CAKI-1)	GI50 (NCI-H460)	GI50 (M14)	GI50 (A498)	GI50 (BT-549)	GI50 (EKVX)	GI50 (SK-MEL-2)	GI50 (RPMI-8226)	GI50 (MDA-MB-435)	GI50 (KM12)	GI50 (UO-31)	GI50 (MDA-MB-231)	GI50 (HOP-62)	GI50 (HCT-116)	GI50 (TK-10)	GI50 (ACHN)	GI50 (SW-620)	GI50 (SF-539)	GI50 (HL-60)	GI50 (PC-3)
COc1ccc(NCc2cnc3nc(N)nc(N)c3c2C)cc1	6.55 µM (inactive)	0.433 µM (active)	1.69 µM (inactive)	> 100 µM (inactive)	> 100 µM (inactive)	15.7 µM (inactive)	> 100 µM (inactive)	5.96 µM (inactive)	0.428 µM (active)	6.41 µM (inactive)	> 49.8 µM (inactive)	0.121 µM (active)	1.16 µM (inactive)	0.0785 µM (active)	41.4 µM (inactive)	0.56 µM (active)	0.914 µM (active)	0.7 µM (active)		
CC(=O)c1ccc(/N=N/N2CCCC2)cc1	> 100 µM (inactive)	> 100 µM (inactive)	> 100 µM (inactive)	15.9 µM (inactive)	> 100 µM (inactive)	> 100 µM (inactive)	> 100 µM (inactive)		> 100 µM (inactive)	> 100 µM (inactive)	> 100 µM (inactive)	> 100 µM (inactive)	> 100 µM (inactive)	> 100 µM (inactive)	> 100 µM (inactive)	> 100 µM (inactive)	> 100 µM (inactive)	> 100 µM (inactive)	29.5 µM (inactive)	> 100 µM (inactive)
Cc1nn(C(=O)c2ccc(Cl)cc2)c2c1C(c1ccc([N+](=O)[O-])cc1)SC(=N)N2 (stereo not given)	> 10 µM (inactive)	> 10 µM (inactive)	> 10 µM (inactive)		> 10 µM (inactive)	> 10 µM (inactive)	> 10 µM (inactive)	> 10 µM (inactive)	> 10 µM (inactive)	> 10 µM (inactive)		> 10 µM (inactive)	> 10 µM (inactive)	> 10 µM (inactive)	> 10 µM (inactive)	> 10 µM (inactive)	> 10 µM (inactive)	> 10 µM (inactive)	> 10 µM (inactive)	> 10 µM (inactive)
COC(=O)[C@H](Cc1ccccc1)NC(=O)N(CCN(CCC#N)C(=O)N[C@H](C(=O)OC)C(C)C)c1ccccc1	> 100 µM (inactive)		> 100 µM (inactive)	> 100 µM (inactive)	> 100 µM (inactive)	> 100 µM (inactive)	41.8 µM (inactive)	33.2 µM (inactive)	85.3 µM (inactive)	> 100 µM (inactive)	> 100 µM (inactive)	> 100 µM (inactive)	> 100 µM (inactive)	> 100 µM (inactive)	> 100 µM (inactive)	> 100 µM (inactive)	> 100 µM (inactive)	> 100 µM (inactive)		> 100 µM (inactive)
NC(=O)C1=NNc2ccccc2C(=O)N1c1ccccc1	> 100 µM (inactive)	> 100 µM (inactive)	> 100 µM (inactive)	> 100 µM (inactive)	> 100 µM (inactive)	> 100 µM (inactive)	> 100 µM (inactive)	> 100 µM (inactive)	> 100 µM (inactive)	> 100 µM (inactive)	> 100 µM (inactive)	> 100 µM (inactive)	> 100 µM (inactive)	> 100 µM (inactive)	> 100 µM (inactive)	> 100 µM (inactive)	> 100 µM (inactive)	> 100 µM (inactive)		> 100 µM (inactive)
CN(/N=C/c1ccnc2ccccc12)c1ccc(Cl)cc1[N+](=O)[O-]	> 100 µM (inactive)	> 100 µM (inactive)	> 100 µM (inactive)	> 100 µM (inactive)	6.95 µM (inactive)	12.2 µM (inactive)	> 100 µM (inactive)		> 100 µM (inactive)	> 100 µM (inactive)	> 100 µM (inactive)	> 100 µM (inactive)	31.8 µM (inactive)	> 100 µM (inactive)	35.6 µM (inactive)	> 100 µM (inactive)	> 100 µM (inactive)	24.4 µM (inactive)	> 100 µM (inactive)	> 100 µM (inactive)
Cc1ccc(-c2nc(N/N=C/C=C/c3ccccc3)c3ccccc3n2)cc1	38.8 µM (inactive)	28.6 µM (inactive)	29.4 µM (inactive)		23.1 µM (inactive)	15 µM (inactive)	24.9 µM (inactive)	> 100 µM (inactive)	52 µM (inactive)	54 µM (inactive)	83.6 µM (inactive)	16.6 µM (inactive)	64.4 µM (inactive)	26.6 µM (inactive)	20 µM (inactive)	19.1 µM (inactive)	29.1 µM (inactive)	55.5 µM (inactive)	> 100 µM (inactive)	28.6 µM (inactive)
